Results from patent US20240158446A1, “CYCLIC COMPOUND HAVING SELECTIVE INHIBITORY ACTION ON KRAS OVER HRAS AND NRAS” (CHUGAI SEIYAKU KABUSHIKI KAISHA, priority 2021, published 2024).

Assays:
[1] = biological target: GDP-bound NRAS wild-type protein (Homo sapiens, UniProt P01111); test: Binding to NRAS by surface plasmon resonance (SPR), Single Cycle Kinetics; conditions: SPR, GDP-bound NRAS wild-type protein vs GDP-bound KRAS wild-type protein
[2] = biological target: GDP-bound HRAS wild-type protein (Homo sapiens, UniProt P01112); test: Binding to HRAS by surface plasmon resonance (SPR), Single Cycle Kinetics; conditions: SPR, GDP-bound HRAS wild-type protein vs GDP-bound KRAS wild-type protein
Chain of GDP-bound HRAS wild-type protein (P01112 whole entry): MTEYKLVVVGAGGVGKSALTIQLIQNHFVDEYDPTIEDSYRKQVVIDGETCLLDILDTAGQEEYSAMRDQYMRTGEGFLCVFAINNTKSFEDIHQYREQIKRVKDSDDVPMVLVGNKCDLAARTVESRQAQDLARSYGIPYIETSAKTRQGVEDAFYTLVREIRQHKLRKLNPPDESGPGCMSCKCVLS

Chain of GDP-bound NRAS wild-type protein (P01111 whole entry): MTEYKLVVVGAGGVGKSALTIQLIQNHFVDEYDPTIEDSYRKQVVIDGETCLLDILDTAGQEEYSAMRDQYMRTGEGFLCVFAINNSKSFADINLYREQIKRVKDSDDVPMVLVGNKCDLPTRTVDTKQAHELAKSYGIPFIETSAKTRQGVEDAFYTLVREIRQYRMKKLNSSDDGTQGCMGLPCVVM

Row | SMILES | NRAS/KRAS (ratio of KD value for NRAS to KD value for KRAS) [1] | HRAS/KRAS (ratio of KD value for HRAS to KD value for KRAS) [2]
1 | CC[C@H](C)[C@@H]1NC(=O)[C@H](CC(C)C)N(C)C(=O)C[C@@H](C(=O)N2CCOCC2)N(C)C(=O)[C@H](C2CCCC2)N(C)C(=O)C2(CCC2)NC(=O)[C@@H]2[C@@H](OCCC(F)(F)F)CCN2C(=O)[C@H](CCc2cc(F)c(C(F)(F)F)c(F)c2)NC(=O)CN(C)C(=O)[C@H](Cc2ccc(C(F)(F)F)cc2)N2CCCCC[C@@H](C2=O)N(C)C(=O)CN(C)C1=O [PP1008] | A (a compound having 10 or more and less than 20 is denoted as A) | B (a compound having 3 or more and less than 10 is denoted as B)
2 | CCCCO[C@H]1CCN2C(=O)[C@H](CCc3cc(F)c(C(F)(F)F)c(F)c3)NC(=O)CN(C)C(=O)[C@H](Cc3ccc(C(F)(F)F)cc3)N3CCCCC[C@@H](C3=O)N(C)C(=O)CN(C)C(=O)[C@H]([C@@H](C)CC)NC(=O)[C@H](CC(C)C)N(C)C(=O)C[C@@H](C(=O)N3CCOCC3)N(C)C(=O)[C@H](C3CCCC3)N(C)C(=O)C3(CCC3)NC(=O)[C@H]12 [PP1009] | B (a compound having 3 or more and less than 10 is denoted as B) | B (a compound having 3 or more and less than 10 is denoted as B)
3 | CC[C@H](C)[C@@H]1NC(=O)[C@H](CC(C)C)N(C)C(=O)C[C@@H](C(=O)N2CCOCC2)N(C)C(=O)[C@H](C2CCCC2)N(C)C(=O)C2(CCC2)NC(=O)[C@@H]2[C@@H](OCC3CC3)CCN2C(=O)[C@H](CCc2cc(F)c(C(F)(F)F)c(F)c2)NC(=O)CN(C)C(=O)[C@H](Cc2ccc(C(F)(F)F)cc2)N2CCCCC[C@@H](C2=O)N(C)C(=O)CN(C)C1=O [PP1010] | B (a compound having 3 or more and less than 10 is denoted as B) | B (a compound having 3 or more and less than 10 is denoted as B)
4 | CCCCO[C@@H]1C[C@H]2C(=O)NC3(CCC3)C(=O)N(C)[C@@H](C3CCCC3)C(=O)N(C)[C@H](C(=O)N3CCOCC3)CC(=O)N(C)[C@@H](CC(C)C)C(=O)N[C@@H]([C@@H](C)CC)C(=O)N(C)CC(=O)N(C)[C@H]3CCCCN(C3=O)[C@@H](Cc3ccc(C(F)(F)F)cc3)C(=O)N(C)CC(=O)N[C@@H](CCc3cc(F)c(C(F)(F)F)c(F)c3)C(=O)N2C1 [PP1013] | C (A compound having a KD ratio of 0.1 or more and less than 3 is denoted as C) | C (A compound having a KD ratio of 0.1 or more and less than 3 is denoted as C)
5 | CC[C@H](C)[C@@H]1NC(=O)[C@H](CC(C)C)N(C)C(=O)C[C@@H](C(=O)N2CCOCC2)N(C)C(=O)[C@H](C2CCCC2)N(C)C(=O)C2(CCC2)NC(=O)[C@@H]2C[C@@H](OCC3CC3)CN2C(=O)[C@H](CCc2cc(F)c(C(F)(F)F)c(F)c2)NC(=O)CN(C)C(=O)[C@H](Cc2ccc(C(F)(F)F)cc2)N2CCCC[C@@H](C2=O)N(C)C(=O)CN(C)C1=O [PP1014] | C (A compound having a KD ratio of 0.1 or more and less than 3 is denoted as C) | C (A compound having a KD ratio of 0.1 or more and less than 3 is denoted as C)
6 | CCO[C@@H]1C[C@H]2C(=O)NC3(CCC3)C(=O)N(C)[C@@H](C3CCCC3)C(=O)N(C)[C@H](C(=O)N(C)C)CC(=O)N(C)[C@@H](CC(C)C)C(=O)N[C@@H]([C@@H](C)CC)C(=O)N(C)CC(=O)N(C)[C@H]3C[C@@H](C)CCN(C3=O)[C@@H](Cc3ccc(C(F)(F)F)cc3)C(=O)N(C)CC(=O)N[C@@H](CCc3cc(F)c(C(F)(F)F)c(F)c3)C(=O)N2C1 [PP1018] | C (A compound having a KD ratio of 0.1 or more and less than 3 is denoted as C) | B (a compound having 3 or more and less than 10 is denoted as B)
